#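 Each compound was tested at five concentrations against cells in 96-well plates for 48 hours. GI50 = concentration required for 50% inhibition of growth.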 Calls of active or inactive are those of the source. No stated cut-off is given here; in the data, active = GI50 up to about 1.1 µM and inactive = higher.
# What was measured:
# Assay in all cases: NCI-60 cell line screen, 48 h
# [1] = system: ACHN
# [2] = system: SF-539
# [3] = system: SNB-75
# [4] = system: HCT-15
# [5] = system: UACC-257
# [6] = system: DMS-273
# [7] = system: SF-295
# [8] = system: NCI-H23
# [9] = system: KM-20L2
# [10] = system: RXF 393
# [11] = system: DMS-114
# [12] = system: A498
# [13] = system: SW-620
# [14] = system: CAKI-1
# [15] = system: HCT-116
# [16] = system: SNB-19
# [17] = system: NCI-H226
# [18] = system: NCI-H522
# [19] = system: MOLT-4
# [20] = system: SK-MEL-28
# [21] = system: SNB-78
# [22] = system: NCI-H460
# [23] = system: IGROV-1
# [24] = system: HOP-92
# [25] = system: OVCAR-5
# [26] = system: OVCAR-4
# [27] = system: K562
# [28] = system: Malme-3M
# [29] = system: OVCAR-3
# [30] = system: U-251
# [31] = system: UO-31
# [32] = system: 786-0
# [33] = system: HOP-62
# [34] = system: TK-10
# [35] = system: UACC-62
# [36] = system: RPMI-8226
# [37] = system: HT-29
# [38] = system: SN12C
# [39] = system: CCRF-CEM
# [40] = system: HCC 2998
# [41] = system: M19-MEL
# [42] = system: KM12
# [43] = system: XF498
# [44] = system: SK-MEL-2
# [45] = system: COLO 205
# [46] = system: SK-MEL-5
# [47] = system: M14
# [48] = system: LXFL 529
# [49] = system: HL-60
# [50] = system: LOX IMVI
# [51] = system: DLD-1
# [52] = system: SK-OV-3
# [53] = system: EKVX
# [54] = system: HOP-18
# [55] = system: SF-268
# [56] = system: RXF 631
# [57] = system: OVCAR-8
# [58] = system: A549
smiles,measurement,setting,value
COC(=O)C1CC(C(=O)OC)c2nc3cc([N+](=O)[O-])ccc3nc21 (stereo not drawn),GI50,[1],45.9 µM (inactive)
same,GI50,[2],41 µM (inactive)
same,GI50,[3],> 61 µM (inactive)
same,GI50,[4],17.8 µM
same,GI50,[5],55.6 µM (inactive)
same,GI50,[6],44.5 µM (inactive)
same,GI50,[7],25.5 µM (inactive)
same,GI50,[8],> 61.5 µM (inactive)
same,GI50,[9],63.7 µM (inactive)
same,GI50,[10],31.6 µM (inactive)
same,GI50,[11],16.3 µM (inactive)
same,GI50,[12],> 100 µM (inactive)
same,GI50,[13],89.9 µM (inactive)
same,GI50,[14],59.8 µM (inactive)
same,GI50,[15],33.7 µM (inactive)
same,GI50,[16],> 67.9 µM (inactive)
same,GI50,[17],> 100 µM (inactive)
same,GI50,[18],7.93 µM (inactive)
same,GI50,[19],19.4 µM (inactive)
same,GI50,[20],> 77.3 µM (inactive)
same,GI50,[21],> 100 µM (inactive)
same,GI50,[22],65.6 µM (inactive)
same,GI50,[23],80.7 µM (inactive)
same,GI50,[24],> 100 µM (inactive)
same,GI50,[25],> 100 µM (inactive)
same,GI50,[26],> 100 µM (inactive)
same,GI50,[27],14.7 µM (inactive)
same,GI50,[28],> 100 µM (inactive)
same,GI50,[29],33.1 µM (inactive)
same,GI50,[30],98.2 µM (inactive)
same,GI50,[31],33.7 µM (inactive)
same,GI50,[32],> 87.9 µM (inactive)
same,GI50,[33],> 52.8 µM (inactive)
same,GI50,[34],> 100 µM (inactive)
same,GI50,[35],22.6 µM (inactive)
same,GI50,[36],26.1 µM (inactive)
same,GI50,[37],51.3 µM (inactive)
same,GI50,[38],> 79.3 µM (inactive)
same,GI50,[39],9.53 µM (inactive)
same,GI50,[40],30.5 µM (inactive)
same,GI50,[41],61 µM (inactive)
same,GI50,[42],23.1 µM (inactive)
same,GI50,[43],> 96.6 µM (inactive)
same,GI50,[44],> 100 µM (inactive)
same,GI50,[45],49.1 µM (inactive)
same,GI50,[46],58.7 µM (inactive)
same,GI50,[47],39 µM (inactive)
same,GI50,[48],36.9 µM (inactive)
same,GI50,[49],7.23 µM (inactive)
same,GI50,[50],22.3 µM (inactive)
same,GI50,[51],31 µM (inactive)
same,GI50,[52],> 94 µM (inactive)
same,GI50,[53],> 81.3 µM (inactive)
same,GI50,[54],> 100 µM (inactive)
same,GI50,[55],26.4 µM (inactive)
same,GI50,[56],> 73.3 µM (inactive)
same,GI50,[57],> 90.4 µM (inactive)
same,GI50,[58],43.1 µM (inactive)

# Reference: ChEMBL document CHEMBL1201862, “PubChem BioAssay data set” (2004)
